Measurements: patent publication US20050165030A1, “Pharmaceutical compositions comprising a multifunctional phosphodiesterase inhibitor and an adenosine uptake inhibitor” (priority 2001, published 2005)
Read-outs that look alike come from different tables or passages of the source. One block for each compound: values may come before it.

Columns and labels:
[1] = test system: whole blood platelet aggregation; test: ex vivo whole blood platelet aggregation, clinical crossover study; format: in vivo, human; conditions: alone: cilostazol 100 mg, dipyridamole 200 mg
Protocol: On study day 4, subjects received one 200 mg tablet of dipyridamole. […] The platelet aggregation was induced by the addition of collagen (final concentration of 0.3 μg/ml, Nycomed Arzneimittel, Munchen, Germany). The percentage aggregation was recorded at each time point. To compare the effect of drug treatments, the aggregation at 2-hour and 4-hour is normalized as a percentage to the values prior to dosing.

[2] = test system: isolated rabbit Langendorff hearts; test: cardiac function of isolated rabbit Langendorff hearts
Protocol: This study was conducted in accordance with the “Guide for the Care And Use of Laboratory Animals”, published by the National Research Council, 1996, Washington D.C., and approved by the Institutional Animal Care and Use Committee of Otsuka Maryland Research Institute, LLC. […] A tracheotomy was performed and the animals were intubated. […] The respiratory rate was adjusted to keep arterial blood PO2, PCO2 and pH in the physiological range. […] Hearts were exposed through a mid-line incision of the chest, and quickly excised by an incision at the base of the heart and put into ice-cold Krebs-Henseleit bicarbonate buffer. The heart was then attached to a Langendorff apparatus by the aortic root, and perfused with non-recirculating Krebs-Henseleit buffer at a constant pressure of 75 mmHg. The perfusate was bubbled with 95% O2 and 5% CO2 gas mixture, and the bubbling rate was adjusted to maintain physiological pH (7.35-7.45). Perfusate temperature was maintained at 38° C. by a circulating waterjacket surrounding the buffer reservoirs. The heart was also maintained at 38° C. via a water-jacketed housing in which it was suspended. The open top of the jacket was covered with a piece of parafilm to maintain the humidity and temperature. The pulmonary artery around the right side of the aortic root was cannulated for collecting coronary effluent and for coronary flow rate measurement with a graduated cylinder. […] The pressure transducer was connected to a Grass Chart Recorder (Model 7) to record left ventricular pressure and its first derivative (dp/dt), and heart rate. Hearts with left ventricular developing pressure less than 85 mmHg at the end of the 15-min equilibrium period were not included in the study. The cardiac function indexes measured were LVDP (left ventricular developed pressure), dp/dtmax (the maximal value of the first derivative of the LVDP), heart rate, and coronary flow. […] Measurements for cardiac function were taken at the end of each 5 min drug treatment. The effect of drug treatment is expressed as the percent change of values before and after each drug treatment: % Change from Baseline=[(Value after drug−Value before drug)/Value before drug]×100 Statistical Analysis

adenosine uptake = conditions: cited from earlier work; for IC50: read-out: IC50 of adenosine uptake inhibition
[3] = test system: platelets in human whole blood; test: whole blood platelet aggregation in vitro (collagen); format: cell-based; conditions: for inhibition of platelet aggregation: alone: cilostazol 0.3-3 μM, dipyridamole 1 or 3 μM, 0.1 or 0.3 μg/ml collagen; for effect on platelet aggregation in whole blood: alone: cilostazol 10 or 30 μM, dipyridamole 0.1, 0.3, 1 or 3 μM, 0.5 μg/ml collagen
Protocol: The electrodes were then placed in the cuvette and the sample was allowed to incubate at 37° C. while the instrument was calibrated. […] Dipyridamole was diluted in ethanol (EtOH) to a stock concentration of 100 mM. […] The suspension was allowed to incubate for 3 minutes before collagen was added. […] […] Data are expressed as percent of the values detected in the absence of any inhibition.

[4] = test system: adenosine uptake into washed human erythrocytes; test: [3H]adenosine uptake into washed erythrocytes; format: cell-based
Protocol: Washed erythrocytes (wRBC) were prepared as follows.

human washed platelets = test: collagen-induced aggregation of washed platelets; format: cell-based; conditions: for IC50: Homo sapiens, Platelet; for inhibitory effect on washed platelet aggregation: alone: dipyridamole 1, 3 or 10 μM, cilostazol 30 or 100 nM, adenosine 1 μM; for inhibition of washed platelet aggregation: single agent + 1 μM adenosine (dipyridamole 1, 3, 10 μM; cilostazol 30 or 100 nM)
Protocol: Aggregation was quantified by the change in light transmission using an AG-10 Aggregation Analyzer (Kowa, Japan). Washed platelets were maintained at room temperature and the study was performed within 3 hours following blood collection. Cilostazol was dissolved in DMSO and adenosine was dissolved in water. […] Drug or vehicle (DMSO) was then added (0.4 μl) and incubated for another 3 minutes. […] The overall time of aggregation recorded was 15 minutes.

[5] = blood concentration during intravenous infusion; format: in vivo, rabbit; conditions: cilostazol 0.225 mg/kg bolus + 0.0175 mg/kg/min i.v.; dipyridamole 20 μg/kg/min i.v.
Protocol: Sixty minutes after the surgery, injection of vehicle or the drug combination was initiated. After 20 minutes, the gastrocnemius muscle of the left hindlimb was stimulated throughout the rest of the experiment. Twenty minutes after the stimulation (40 minute time point in FIG. 15), the left femoral artery was clamped for 20 minutes to induce ischemia and then released to allow reperfusion. The regional blood flow was determined by the injection at 0, 20, 40, 60, and 80 minutes of blue-green, yellow-green, orange, red and crimson fluorescent microspheres.

PDE3 = conditions: Liu et al., 2000; read-out: potency for inhibition of PDE3; cited from earlier work
[6] = test system: isolated rabbit Langendorff hearts; conditions: concentrations below 1 μM, previous studies; cited from earlier work
[7] = blood concentration after single oral dose; format: in vivo, human; conditions: 2 and 4 hours after a single dose
[8] = test system: adenosine uptake into CHO cells over-expressing functional human A2A receptors; test: [3H]adenosine uptake into CHO cells over-expressing human A2A receptors; format: cell-based; conditions: compared with platelets and erythrocytes, data not shown
whole blood = test: adenosine concentration in plasma of collagen-stimulated whole blood (HPLC); format: cell-based, human; conditions: dipyridamole 1 μM, 5 minutes after 2 μg/ml collagen, n=3
Protocol: Blood was drawn and mixed with recombinant human huridin (100 U/ml). The same procedure for platelet aggregation was used to stimulate these platelets with collagen (2 μg/ml). After a 5-minute incubation, 500 μl of WB were mixed quickly with 500 μl of ice-cold saline. The cells were spun at 20,000×g for 4 minutes at 4° C. Supernatant (600 μl) was first mixed with 300 μl PCA (2.5 N) and then neutralized with 300 μl of KHCO3 (2.5 M). Finally, the mixture was centrifuged at 20,000×g for 15 minutes at 4° C. The adenosine concentration in the supernatants was measured using reverse-phase high performance liquid chromatography (HPLC, Waters Alliance 2690) with a Hypersil 3μ C18 column (150 mm×4.6 mm) and a gradient from 5 to 20% methanol in 20 mM KH2PO4. Adenosine was detected using a diode array detector (Water 996) with an absorbance change at 258 nm and quantified by comparison of retention times and peak height with those of a known external standard. Quantification was performed using Waters Millennium 32 Client/Server software.

[9] = test system: adenosine A2A-expressing Chinese hamster ovary (CHO) cells; test: CRE-luciferase assay (intracellular cAMP) in CHO cells expressing human adenosine A2A receptor; format: cell-based; conditions: range 0.5 μM to 10 μM
Protocol: The level of luciferase expression reflects the concentration of intracellular cAMP. […] Therefore, the activation of the receptors would be reflected by luciferase expression, where the expression level can be measured by the luciferase activity assay. Co-transfection of the luciferase reporter vector with the vectors containing adenosine A2A receptors was carried out by calcium phosphate precipitation into Chinese hamster ovary (CHO) cells. Stable transfectants were selected with 1.0 mg/ml G418 (Life Technologies) for 12 days. The cell clones over-expressing functional adenosine A2A receptors were determined by luciferase expression under the stimulation of adenosine.
The next day, the cells were washed once with F12K medium supplemented with 0.5% FCS and then incubated with 100 μl of the medium only (basal) or medium plus test agents for 4 hours at 37° C. After equilibrating to room temperature, 100 μl of detection substrate (Bright-Glo™ luciferase assay system, Promega, Madison, Wis.) were added to each well. The luciferase activity was measured after 5 minutes using a Mediators PhL luminescence plate reader (ImmTech, New Windsor, Md.). The value of luminescence (arbitrary unit) detected during half a second was taken as luciferase activity.

[10] = 2 and 4 hours after a single dose of 200 mg, previous pharmacokinetic data; cited from earlier work
[11] = dipyridamole 0.3, 1 or 3 μM with cilostazol

SMILES: O=C1CCc2cc(OCCCCc3nnnn3C3CCCCC3)ccc2N1 [cilostazol, 6-[4-(1-cyclohexyl-1H-tetrazol-5yl)butoxy]-3,4-dihydro-2(1H)-quinolinone]
inhibition of ex vivo platelet aggregation [1]: neither cilostazol nor dipyridamole alone inhibited | coronary flow ([2]; cilostazol 3 or 10 μM): significantly increased | IC50 (adenosine uptake; various cells (rabbit cardiac myocytes, human vascular smooth muscle, endothelial cells), Liu et al., 2000): 5000 to 10000 nM | inhibition of platelet aggregation [3]: did not cause any significant inhibition | effect on platelet aggregation in whole blood [3]: did not have a significant effect | IC50 ([4]; Homo sapiens, Erythrocyte, washed erythrocytes, n=3, read-out: IC50 of adenosine uptake inhibition): ~7000 nM | effect on collagen-induced platelet aggregation (human washed platelets; 1 μM, by itself): little effect | IC50 (human washed platelets; read-out: IC50 of Cilostazol on Platelet Aggregation, +Adenosine (1 μM)): 380 ± 50 nM | IC50 (human washed platelets; read-out: IC50 of Cilostazol on Platelet Aggregation, +Adenosine + Dipyridamole (1 μM)): 170 ± 40 nM | IC50 (human washed platelets; read-out: IC50 of Cilostazol on Platelet Aggregation, +Adenosine + Dipyridamole (3 μM)): 110 nM | IC50 (human washed platelets; read-out: IC50 of Cilostazol on Platelet Aggregation, +Adenosine + Dipyridamole (10 μM)): 10 ± 10 nM | IC50 (human washed platelets; read-out: IC50 of Cilostazol on Platelet Aggregation, cilostazol alone, washed platelets, collagen): 2660 ± 410 nM | inhibitory effect on washed platelet aggregation (human washed platelets): no significant inhibitory effect | effect on collagen-induced platelet aggregation (human washed platelets; cilostazol 1 μM combined with adenosine 1 μM): completely inhibited | inhibition of washed platelet aggregation (human washed platelets): significant differences from controls | blood concentration [5]: about 1 μM | IC50 (PDE3): 320 nM | effects on cardiac function [6]: minimal effects | blood concentration [7]: about 2 μM

SMILES: Cc1[nH]c(=O)c(C#N)cc1-c1ccncc1 [milrinone]
inhibitory effect on adenosine uptake (adenosine uptake; at concentrations as high as 100 μM, Liu et al., 2000): no significant inhibitory effect | inhibition of [3H]adenosine uptake [8]: no effect | effect on adenosine uptake ([4]; erythrocytes): virtually no effect

SMILES: Nc1ncnc2c1ncn2[C@@H]1O[C@H](CO)[C@@H](O)[C@H]1O [adenosine]
effect on collagen-induced platelet aggregation (human washed platelets; 1 μM, by itself): little effect | inhibitory effect on washed platelet aggregation (human washed platelets): no effect

SMILES: Nc1nc(NCCc2ccc(O)cc2)nc2nc(-c3ccco3)nn12 [ZM241385]
effect on the synergistic effect of dipyridamole and cilostazol on whole blood aggregation ([3]; ZM241385 0.1 μM, n=8): reverted back to the basal level of cilostazol alone

effect on cardiac function ([2]; dipyridamole 0.3, 1 or 3 μM alone): no significant effect | cilostazol-induced increase of cardiac contractility [2, 11]: significantly reduced | blood concentration [5]: about 1 μM
SMILES: OCCN(CCO)c1nc(N2CCCCC2)c2nc(N(CCO)CCO)nc(N3CCCCC3)c2n1 [dipyridamole]
inhibition of ex vivo platelet aggregation [1]: neither cilostazol nor dipyridamole alone inhibited | cilostazol-induced increase of heart rate [2, 11]: significantly reduced | cilostazol-induced increase in coronary flow ([2]; dipyridamole 1 and 3 μM with cilostazol 10 μM): augmented | IC50 (adenosine uptake): 10 nM | adenosine levels in whole blood plasma (whole blood): 5.916 ± 0.641 µM | inhibition of platelet aggregation [3]: did not cause any significant inhibition | effect on platelet aggregation in whole blood [3]: did not have a significant effect | platelet aggregation ([3]; dipyridamole 1 μM, 2 μg/ml collagen): not affected | inhibitory effect on washed platelet aggregation (human washed platelets): no significant inhibitory effect | inhibition of washed platelet aggregation (human washed platelets): enhanced the effect of dipyridamole significantly | dipyridamole concentration of peak enhancement of cilostazol effect on luciferase activity [9]: about 5 μM | blood concentration [10]: about 2 μM
